Data set [1] can be described thus: Steady-state AUC0-24,ss, (AUC0-24,ss)/dose, half-life and time to steady state: Compound I versus palbociclib, ribociclib, abemaciclib. Format: in vivo, human. Particulars: for (Mean AUC0-24,ss)/Dose (mg) / Cmax / AUC(0-t): Day 29; for AUC(0-t): read-out: Mean AUC0-24,ss. The source says:
The time to reach steady state was defined as five half-lives (97% steady state achieved). […] The AUC data are presented as the arithmetic mean. […] The AUC data are presented as the geometric mean. The steady-state AUC0-24 for various BID doses of abemaciclib provided in Table 89 was obtained from the above cited prior published studies. The AUC data are presented as the geometric mean.

A further data set relates to ME-016 tumor. Description: Murine BRAFmut melanoma PDX model, tumor growth and survival. Particulars: ME-016 tumor-containing mice; Compound I 100 mg/kg, dabrafenib 25 mg/kg, trametinib 1 mg/kg. Format: in vivo. The protocol:
Mice containing a ME-016 tumor were treated with vehicle, Compound I (100 mg/kg), dabrafenib (25 mg/kg), trametinib (1 mg/kg), Compound I+dabrafenib, Compound I+trametinib, dabrafenib+trametinib, and Compound I+dabrafenib+trametinib.

A short description of data set [2]: Slurry conversion of impure Form B to pure Form B (small scale and scale-up, XRPD). Format: physicochemical. The protocol:
Approximately 16 small scale slurry experiments were carried out by varying the slurry concentration, temperature, HCl acid molar concentration, and content in the aqueous acetone mixtures as well as the water content. Slurries of impure Form B were performed in a given solvent system at targeted calculated concentration at ambient or elevated temperatures for various time/durations. The solids were isolated by vacuum filtration and submitted for XRPD analysis. The specific experimental conditions are detailed in Table 109 where solvent system ratios are by volume.
The slurries in acidic aqueous acetone mixtures at an elevated temperature of 50° C. […] FIG. 19 compares XRPD patterns of Sample 3 and 5 to the starting material of the experiments, impure Form B and to pure Form B. For comparison purposes, the samples were also compared to a second impure sample of Form B, (Impure Form B Sample 2 in FIG. 19). This second impure Form B contained larger amounts of the unknown Form than the impure Form B previously described in Example 8.
Several slurry experiments were performed in water:acetone solvent systems starting with impure Form B and varying the water:acetone ratio, slurry concentration, and time. Based on the initial slurry results, experiments in 1:2 (v/v) water:acetone at ambient temperature were performed with aliquots taken after 16 hours (Sample 6) and 20.5 hours (Sample 7). The slurry in this solvent system was conducted at a concentration of 100-125 mg/mL and ambient temperature. The XRPD patterns of the resulting materials were consistent with pure Form B (FIG. 20).
In an effort to improve the yield, water:acetone 1:3 (v/v) was used at 150 mg/mL concentration (Samples 13 and 14) however, the conversion was not completed even after 4 days (FIG. 21). Therefore, one experiment was performed using water:acetone 1:2 (v/v) slurry for 18 hours and then adding acetone to reach ratio water:acetone 1:4 (v/v) followed by slurry for 4 hours (Sample 12). The XRPD pattern of the resulting material was consistent with Form B, however, one of the undesired peaks reappeared shifted from 3.95 °2θ to 4.2 °2θ (FIG. 21).
The Julabo FP50 temperature control unit contained Julabo Thermal C10 fluid and the reactor temperature was measured with a K-type PTFE temperature probe. The experiments were carried out with Lara Control software version 2.3.5.0. The software tracked circulator temperature, vessel temperature, and stir rate, recording readings every tenth of a second throughout the experiment.
The reactor vessel was charged with the solids of impure Form B (58.86 g) in 471 mL of a water:acetone 1:2 (v/v) solvent system achieving 125 mg/mL slurry concentration (Samples 20-23). The resulting slurry was stirred at 30° C. for up to 43 hours with stirring speed of 400 rpm. The slurry was cooled to 25° C. over 30 minutes, discharged from the reactor vessel, and immediately slowly filtered (drop by drop) to […]. A water:acetone 1:2 (v/v) wash solution was prepared in advance and used to wash the filter cake in one portion.
Pulls were taken usually at the 20th hour and if needed at later time points (Table 110).
The conversion of impure Form B to pure Form B was conducted in water:acetone 1:2 (v/v) slurry at 125 mg/mL concentration and 30° C. for 43 hours. Very slow filtration was observed and the wet cake was air-dried at ambient conditions for 3.5 hours followed by vacuum drying at ambient temperature and 15 in Hg for 0.5 hour and then at ˜27 in Hg for 3.5 hours yielding 49.26 g ([…]).

Data set [3] is described as follows: Six- and twelve-month stability study of Form B at 25° C./60% RH and 40° C./75% RH. Format: physicochemical. The protocol:
Form B was stored at 25° C./60% RH for twelve months and at 40° C./75% RH for six months.

Setting [4] is: 200 mg QD of Form B of Compound II, five half-lives.
The mark [5] stands for this setting: human, plasma, oral, 200 mg QD of Form B of Compound II.
Where [6] appears, read: human, plasma, oral, 300 mg QD of Form B of Compound II.
Setting [7] is: human, plasma, oral, 400 mg QD of Form B of Compound II.
The mark [8] stands for this setting: human, plasma, oral, 500 mg QD of Form B of Compound II.
[9] abbreviates: human, plasma, oral, 650 mg QD of Form B of Compound II.

Read-outs that look alike come from different tables or passages of the source.

As to `CC(C)N1CCN(c2ccc(Nc3ncc4cc5n(c4n3)C3(CCCCC3)CNC5=O)nc2)CC1` [Compound I, 2′-((5-(4-isopropylpiperazin-1-yl)pyridin-2-yl)amino)-7′,8′-dihydro-6′H-spiro[cyclohexane-1,9′-pyrazino[1′,2′:1,5]pyrrolo[2,3-d]pyrimidin]-6′-one], the (Mean AUC0-24,ss)/Dose (mg) in data set [1] (200 mg QD of Form B of Compound II) was 1.15 ng·h/mL/mg; in data set [1] (300 mg QD of Form B of Compound II) it was 1.97 ng·h/mL/mg; in data set [1] (400 mg QD of Form B of Compound II), 0.695 ng·h/mL/mg; in data set [1] (500 mg QD of Form B of Compound II) it was 1.21 ng·h/mL/mg; in data set [1] (650 mg QD of Form B of Compound II) it was 1.47 ng·h/mL/mg. The “Time to Steady State” value in data set [1] (setting [4]) turned out to be 3.2 days. Moreover, in data set [1] (setting [4]), the “Time to Steady-State” value came out at 76 h. Also, in data set [1] (Compound I, Day 29, QD dosing of Form B of Compound II), the “(AUC0-24,ss)/Dose” value is listed as at most 5. The same compound had a half-life in data set [1] (setting [5]) of 15.2 h. Moreover, the Cmax in data set [1] (setting [5]) was 20.4 ng/mL; in data set [1] (setting [6]), 47 ng/mL; in data set [1] (setting [7]), 19 ng/mL; in data set [1] (setting [8]), 43.2 ng/mL; in data set [1] (setting [9]), 66 ng/mL. In addition, the AUC(0-t) in data set [1] (setting [5]) is 229 ng·h/mL; in data set [1] (setting [6]) it was 592 ng·h/mL; in data set [1] (setting [7]), 278 ng·h/mL; in data set [1] (setting [8]) it was 607 ng·h/mL; in data set [1] (setting [9]) it was 956 ng·h/mL. Moreover, the “Median OS” value in the data set with ME-016 tumor is given as 42.5 days.

`CC(C)N1CCN(c2ccc(Nc3ncc4cc5n(c4n3)C3(CCCCC3)CNC5=O)nc2)CC1` [Compound II, 2′-((5-(4-isopropylpiperazin-1-yl)pyridin-2-yl)amino)-7′,8′-dihydro-6′H-spiro[cyclohexane-1,9′-pyrazino[1′,2′:1,5]pyrrolo[2,3-d]pyrimidin]-6′-one]: the “XRPD Result” value is “Form B + small broad” in data set [2] (125 mg/mL Slurry, 30° C., 20 h); “B + broad peaks at 4.2°” in data set [2] (125 mg/mL Slurry, 30° C., 24 h); “Form B” in data set [2] (125 mg/mL Slurry, 30° C., 42 h); “Form B” in data set [2] (125 mg/mL Slurry, 30° C., 43 h VF, washed with 50 mL of H2O:acetone 1:2, Air-dried for 3.5 h); “Form B” in data set [2] (Vacuum drying, 22° C., 0.5 h, 15 in Hg, 22° C. 1.5 h, 27-28 in Hg); “Form B” in data set [2] (Vacuum drying, 22° C., 2.0 h, 27 in Hg).

Take `CC(C)N1CCN(c2ccc(Nc3ncc4cc5n(c4n3)C3(CCCCC3)CNC5=O)nc2)CC1` [Form B]: in data set [3] (25° C. and 60% relative humidity), the “long-term stability, time stable” value is recorded as “at least 1 year”. Moreover, the Appearance entry is recorded as “Yellow” in data set [3] (25° C./60% RH, 0M); “Yellow” in data set [3] (25° C./60% RH, 3M); “Yellow” in data set [3] (25° C./60% RH, 6M); “Yellow” in data set [3] (25° C./60% RH, 9M); “Yellow” in data set [3] (25° C./60% RH, 12M); “Yellow solid” in data set [3] (40° C./75% RH, 0M). In addition, the Appearance result is “Yellow solid” in data set [3] (40° C./75% RH, 1M); “Yellow solid” in data set [3] (40° C./75% RH, 3M); “Yellow solid” in data set [3] (40° C./75% RH, 6M). Further, the “HPLC Purity” value in data set [3] (25° C./60% RH, 0M) worked out at 99.5%; in data set [3] (25° C./60% RH, 3M), 99.5%; in data set [3] (25° C./60% RH, 6M), 99.5%; in data set [3] (25° C./60% RH, 9M) it was 99.6%; in data set [3] (25° C./60% RH, 12M), 99.5%; in data set [3] (40° C./75% RH, 0M), 99.5%. In addition, the “HPLC Purity” value in data set [3] (40° C./75% RH, 1M) was 99.5%; in data set [3] (40° C./75% RH, 3M), 99.5%; in data set [3] (40° C./75% RH, 6M), 99.5%. Further, the “Moisture (%)” value is 4.9% in data set [3] (25° C./60% RH, 0M); 4.07% in data set [3] (25° C./60% RH, 3M); 7.53% in data set [3] (25° C./60% RH, 6M); 7.29% in data set [3] (25° C./60% RH, 9M); 7.48% in data set [3] (25° C./60% RH, 12M); 4.9% in data set [3] (40° C./75% RH, 0M). The “Moisture (%)” value in data set [3] (40° C./75% RH, 1M) turned out to be 2.75%; in data set [3] (40° C./75% RH, 3M), 7.47%; in data set [3] (40° C./75% RH, 6M) it was 7.53%. Moreover, the XRPD entry in data set [3] (25° C./60% RH, 0M) is given as “Form B”; in data set [3] (25° C./60% RH, 12M) it was “Form B”; in data set [3] (40° C./75% RH, 0M), “Form B”; in data set [3] (40° C./75% RH, 3M), “Form B”; in data set [3] (40° C./75% RH, 6M), “Form B”. Also, the “XRPD spectrum at the longest time point studied” value in data set [3] (25° C./60% RH, twelve months) is reported as “conformed to the reference spectrum”; in data set [3] (40° C./75% RH, six months), “conformed to the reference spectrum”. Besides, the “purity at the longest time point studied” value in data set [3] (25° C./60% RH, twelve months) came to 99.5%; in data set [3] (40° C./75% RH, six months), 99.5%.

In general, half-life refers to how long it takes for the measured level to halve. Low readings indicate rapid decline, high ones slow decline. For orientation: Cmax means the maximum level reached in the sampled fluid or tissue.
